Assay results taken from patent publication US20090253134A1, “Cellular Pyrogen Test” (Fraunhofer-Gesellschaft zur Forderung der angewandten …, priority 2006, published 2009).
Entries after “also recorded” stand apart in the source; their conditions may differ.

Legend:
TLR-4/CD14 [1] = molecular target: T1, TLR-4/CD14 (Homo sapiens, UniProt O00206+Q9Y6Y9); assay: NIH-3T3 TLR-4/CD14 SEAP reporter gene pyrogen test; assay type: cell-based
T1 construct: expressed in transfected cells; host or cells: NIH-3T3 (murine fibroblasts), clone 4/5
From the text: The cell line NIH-3T3 was transfected with a TLR-4/CD14 complex as well as the reporter gene plasmid SEAP/ELAM-1.
The endotoxin (LPS)-mediated induction of TLR-4 leads according to a signal cascade to activation of the transcription factor NF-κB. Expression of the reporter gene SEAP is controlled by an ELAM-1 promoter inducible by NF-κB. NF-κB activation and therefore specifically secretion of SEAP then occurs on induction of TLR-4 by the endotoxin lipopolysaccharide LPS.
NIH-3T3 TLR-4/CD14 clone 4/5 P35 in a density of 30,000 to 200,000 cells/well (24-well) (corresponding cell count for other well volume) are inoculated in 500 μL/well in 0.5% FCS medium o/n for adhesion.
On the next day detection occurs by incubation with 300 μL/well detection medium, which is added directly to the induced cells: in the induced cells SEAP activity converts the substrate BCIP in the detection medium to a dark blue insoluble end product (indigo). As an alternative SEAP activity in the induced cells converts the substrate pNPP in the detection medium to a light yellow soluble color complex, which is determined photometrically at about 405 nm. The photometric analysis occurs about 2 hours after addition of the detection medium.
In one variant transfected cell lines are frozen in the corresponding assay format, here: a cell culture-well-plate (multiwell plate) in corresponding density (200,000 cells/well in 500 μL each (in 24-well)).
After thawing of the kit, addition of DMEM culture medium occurs for adhesive of the cells overnight. A medium with HEPES buffer permits incubation of the cell test in a heating cabinet, i.e., without CO2 gassing. Induction is carried out per test by addition of 100 ng/mL LPS. The detection is conducted after 24 hours by addition of 300 μL/well BCIP detection medium.
On a multiwell plate (96-well) NIH-3T3 TLR-4/CD14 SEAP P40 cells were frozen in a density of 30,000 cells/well in 100 μL medium (DMEM 80 mmol/L HEPES, 30% FCS and 5% DMSO) in suspension at −80° C.
After 72 hours to 4 weeks at −80° C. the cells were thawed by addition of 100 μL medium (10% FCS) at 37° C. […]

TLR-5 [2] = molecular target: T2, TLR-5 (Homo sapiens, UniProt O60602); assay: Comparative TLR-5 test with HELA cells transfected with TLR-5 SEAP; assay type: cell-based; set-up: expressed in transfected cells; settings: 2 μg/mL flagellin; induced and noninduced controls both intensely blue
Experimental: FIG. 13 comparative experiment: TLR-5 test with HELA cells transfected with TLR-5 SEAP induced with 2 μg/mL flagellin; both the induced cells and the noninduced controls show intense blue coloration.

TLR-5 [3] = molecular target: T2, TLR-5; assay: NIH-3T3 TLR-5 SEAP reporter gene test; assay type: cell-based; set-up: expressed in transfected cells; host or cells: NIH-3T3 (murine fibroblasts); settings: 2 μg/mL flagellin; BCIP
Experimental: The cell line NIH-3T3 was transfected with TLR-5 and the reporter gene plasmid SEAP. The measures correspond to example 1.
NIH-3T3 clone TLR-5 was inoculated in a density of 30,000 to 200,000 cells/well (24-well) in 500 μL/well in 0.5% FCS medium; induction occurs with 2 μg/mL flagellin; detection by incubation with 300 μL/well detection medium with BCIP.

[4] = test system: Limulus amebocyte lysate proenzyme; settings: cited from earlier work
TLR-4/CD14 [5] = molecular target: T3, TLR-4/CD14 (Homo sapiens, UniProt O00206); assay: SDS-PAGE/Western Blot analysis of SEAP expression in HEK293 and other 293 cells transfected with TLR-4/CD14 SEAP; assay type: cell-based; settings: 100 ng/mL LPS; cell pellets
T3 construct: expressed in transfected cells; host or cells: HEK blue 293 and other 293 cells (clones K2, K4)
Experimental: (§1) HEK blue 293 fibroblasts and other 293 fibroblasts were transfected with TLR-4/CD14 SEAP and induced with 100 ng/mL LPS. All other process parameters were chosen as in example 1 according to the invention.
In addition, a Western Blot analysis of gene expression was conducted in known fashion: first antibody: anti-SEAP; conjugated second antibody: anti-mouse POD; marker: SeeBlue® Plus2; prestained standard.

human whole blood cells = settings: cited from earlier work
TLR-4/CD14 [6] = molecular target: T3, TLR-4/CD14; assay: Comparative TLR-4 colour test with HEK blue 293 and other 293 fibroblasts transfected with TLR-4/CD14 SEAP; assay type: cell-based; settings: 100 ng/mL LPS; induced and noninduced controls both turn blue
Experimental: as §1

T1 sequence (O00206 24-839): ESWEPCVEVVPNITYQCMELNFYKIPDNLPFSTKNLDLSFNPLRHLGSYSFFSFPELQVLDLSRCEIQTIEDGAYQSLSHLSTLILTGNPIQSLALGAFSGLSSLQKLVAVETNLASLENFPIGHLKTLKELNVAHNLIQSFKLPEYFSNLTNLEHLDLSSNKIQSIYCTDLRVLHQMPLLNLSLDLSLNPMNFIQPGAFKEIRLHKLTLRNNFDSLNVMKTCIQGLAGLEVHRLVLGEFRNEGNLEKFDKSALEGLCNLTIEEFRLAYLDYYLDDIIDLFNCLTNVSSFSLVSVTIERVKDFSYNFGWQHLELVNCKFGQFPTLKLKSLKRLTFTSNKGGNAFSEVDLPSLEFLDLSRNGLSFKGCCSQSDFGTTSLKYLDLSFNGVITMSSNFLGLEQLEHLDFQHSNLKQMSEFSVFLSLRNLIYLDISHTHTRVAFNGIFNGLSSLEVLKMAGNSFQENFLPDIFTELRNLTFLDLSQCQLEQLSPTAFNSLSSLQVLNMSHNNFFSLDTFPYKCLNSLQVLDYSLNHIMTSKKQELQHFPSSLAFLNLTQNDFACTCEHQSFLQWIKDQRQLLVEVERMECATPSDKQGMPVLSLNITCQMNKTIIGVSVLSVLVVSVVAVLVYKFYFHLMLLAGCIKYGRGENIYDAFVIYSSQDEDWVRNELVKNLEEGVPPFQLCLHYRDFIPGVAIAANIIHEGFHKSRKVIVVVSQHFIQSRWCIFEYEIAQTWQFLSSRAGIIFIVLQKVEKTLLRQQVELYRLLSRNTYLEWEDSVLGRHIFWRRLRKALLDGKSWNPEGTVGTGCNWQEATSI
T1 sequence (Q9Y6Y9 17-160 limits assumed): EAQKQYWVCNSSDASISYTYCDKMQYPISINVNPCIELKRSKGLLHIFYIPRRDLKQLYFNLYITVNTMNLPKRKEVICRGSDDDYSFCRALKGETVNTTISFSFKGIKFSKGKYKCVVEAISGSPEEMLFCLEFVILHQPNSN
T3 sequence (O00206 24-839): as the sequence (O00206 24-839) above
T2 sequence (O60602 21-858): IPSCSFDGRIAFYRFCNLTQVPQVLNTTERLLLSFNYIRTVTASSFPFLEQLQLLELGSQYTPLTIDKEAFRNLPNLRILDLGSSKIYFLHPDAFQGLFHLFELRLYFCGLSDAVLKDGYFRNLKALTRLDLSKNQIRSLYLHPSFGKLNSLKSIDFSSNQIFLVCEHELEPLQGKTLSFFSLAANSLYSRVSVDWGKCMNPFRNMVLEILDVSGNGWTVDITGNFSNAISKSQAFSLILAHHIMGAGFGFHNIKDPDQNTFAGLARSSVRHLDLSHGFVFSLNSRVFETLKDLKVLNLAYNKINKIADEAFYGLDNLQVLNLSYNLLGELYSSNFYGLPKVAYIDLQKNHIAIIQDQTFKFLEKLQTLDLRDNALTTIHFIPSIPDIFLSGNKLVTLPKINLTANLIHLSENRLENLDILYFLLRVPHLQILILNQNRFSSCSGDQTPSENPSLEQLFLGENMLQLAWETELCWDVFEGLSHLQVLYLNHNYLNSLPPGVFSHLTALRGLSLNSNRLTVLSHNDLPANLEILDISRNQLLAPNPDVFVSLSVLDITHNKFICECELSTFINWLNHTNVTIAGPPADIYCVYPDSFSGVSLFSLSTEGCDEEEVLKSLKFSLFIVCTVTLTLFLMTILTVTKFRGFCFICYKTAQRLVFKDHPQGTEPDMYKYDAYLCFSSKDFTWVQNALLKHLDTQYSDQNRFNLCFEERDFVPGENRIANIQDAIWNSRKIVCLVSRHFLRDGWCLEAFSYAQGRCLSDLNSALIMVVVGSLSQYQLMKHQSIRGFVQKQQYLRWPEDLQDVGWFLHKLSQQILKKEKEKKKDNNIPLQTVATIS

Substance: Poly IC
- color change of detection medium (specificity) (TLR-4/CD14 [1]; induced with 25 μg/mL nonspecific pyrogen each): no color change

Substance: flagellin
- specific induction / color test (TLR-5 [2]): No specific induction is possible
- blue coloration of induced cells (TLR-5 [3]): specific blue coloration

Substance: lipopolysaccharide [LPS]
- detection limit / sensitivity of LAL [4]: 3 pg/mL
- alkaline phosphatase (SEAP) expression, induced vs noninduced cells (TLR-4/CD14 [5]): in the same amount
- sensitivity of IPT (human whole blood cells): 20 to 50 pg/mL
- blue coloration of induced cells, frozen and rethawed cells (TLR-4/CD14 [1]; 100 pg/mL, NIH-3T3 TLR-4/CD14 SEAP P40, induction after 24 hours, detection after 3 hours): specific blue coloration
- SEAP activity, BCIP color reaction after thawing (TLR-4/CD14 [1]; 100 ng/mL LPS, thawed NIH-3T3 clone 4/5 TLR-4/CD14, BCIP): deep dark blue
- specific induction / color test (TLR-4/CD14 [6]): no specific induction; also recorded: a specific detection is not possible
